Data as given in patent US20040009921A1, “Methods and compositions for the treatment of cancer” (Allergan, Inc., priority 2002, published 2004).

How the values were obtained:
[1] = tested on: β-catenin-mediated gene transactivation (TCF/LEF reporter Topflash); assay: Topflash reporter gene assay in HEK293 cells and stable lines RBC, CAT; assay type: cell-based, human
Protocol: Cultured cells were transfected with 100 ng of reporter gene Topflash® together with expression vectors indicated under each graph. […] (A) Data from HEK293 cells co-transfected with wild type or mutant β-catenin (200 ng) and RXRα (20 ng). (B) CAT, a stable cell line that overexpresses β-catenin (left panel). RBC, a stable cell line that overexpresses both RXRα and β-catenin. (C) SW480, a colorectal cancer cell line, was transfected with 100 ng of Topflash®. The amount of RXRα cotransfected was indicated below the X axis. Reporter activity on the Y axis is expressed as either Luciferase Unit or percentage of activity in cells transfected with Topflash® alone.
For transfection of the HEK293 cell line, cells were seeded at a density of 50,000 cells per well in 24-well plates coated with poly-D-Lysine (Becton Dickinson). After 24 hours, the luciferase-based reporter plasmids and expression vectors were cotransfected into cells using Fugene according to the manufacturer's instruction (Roche Applied Science). To monitor the efficiency of transfection, either 15 ng of phRG-TK Renilla or 100 ng of CMX-LacZ DNA were cotransfected. […] Harvested cells were lysed, and luciferase activity was measured as previously described (de Wet, J. R., Wood, K. V., DeLuca, M., Helinski, D. R., Subramani, S. (1987) Mol. Cell. Biol. 7, 725-737). In cells transfected with the LacZ control gene, β-galactosidase activity was measured by standard colorimetric assays. Renilla reniformis […] activity was determined using the Dual-Luciferase Reporter 100 Assay System (Promega Corporation, 2800 Woods Hollow Road, Madison Wis. USA 53711). The experimental reporter gene activity was normalized against either β-galactosidase or Renilla GFP activity. Values represent the mean +/− SEM of quadruplicate determinations.
To investigate whether RXR and its ligands affect β-catenin-mediated gene transactivation, the APC-positive human HEK293 cells were transfected with the reporter gene Topflash®. This reporter gene contains multiple copies of responsive elements for the DNA-binding transcription activators, TCF/LEF, upstream of the basic luciferase reporter gene construct tk-Luc. The tk-Luc portion of he reporter plasmid consists of a minimal gene promoter from HSV tk gene and a coding sequence for luciferase. Transactivation of this reporter by TCF/LEF can be affected by endogenous as well as overexpressed β-catenin, which interacts with TCF/LEF as a co-activator.

β-catenin = assay: Western blotting of β-catenin in CV-1 and Hela cells; assay type: cell-based; settings: CV1 and Hela cells, 0.1 μM, 17 hours
[2] = biological target: T1, RXRα and ΔNβ-catenin interaction (Homo sapiens, UniProt P19793); assay: In vivo protein crosslinking and immunoprecipitation; assay type: cell-based; settings: HEK293, 1 μM AGN 4204 or vehicle before DSP crosslinking
T1 sequence (P19793 1-462): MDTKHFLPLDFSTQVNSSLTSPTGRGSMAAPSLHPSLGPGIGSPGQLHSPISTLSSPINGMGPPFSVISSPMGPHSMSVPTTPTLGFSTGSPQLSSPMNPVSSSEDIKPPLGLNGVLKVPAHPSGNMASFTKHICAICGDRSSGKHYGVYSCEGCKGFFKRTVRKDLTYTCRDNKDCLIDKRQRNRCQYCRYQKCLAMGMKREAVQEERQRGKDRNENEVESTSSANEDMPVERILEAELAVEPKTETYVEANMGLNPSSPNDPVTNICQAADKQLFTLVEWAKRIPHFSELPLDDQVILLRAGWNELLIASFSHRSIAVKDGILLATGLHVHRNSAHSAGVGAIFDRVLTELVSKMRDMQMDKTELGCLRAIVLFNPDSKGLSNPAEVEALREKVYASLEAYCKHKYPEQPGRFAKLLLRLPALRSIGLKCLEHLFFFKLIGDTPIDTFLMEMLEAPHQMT
T1 sequence (P35222 51-781 partner): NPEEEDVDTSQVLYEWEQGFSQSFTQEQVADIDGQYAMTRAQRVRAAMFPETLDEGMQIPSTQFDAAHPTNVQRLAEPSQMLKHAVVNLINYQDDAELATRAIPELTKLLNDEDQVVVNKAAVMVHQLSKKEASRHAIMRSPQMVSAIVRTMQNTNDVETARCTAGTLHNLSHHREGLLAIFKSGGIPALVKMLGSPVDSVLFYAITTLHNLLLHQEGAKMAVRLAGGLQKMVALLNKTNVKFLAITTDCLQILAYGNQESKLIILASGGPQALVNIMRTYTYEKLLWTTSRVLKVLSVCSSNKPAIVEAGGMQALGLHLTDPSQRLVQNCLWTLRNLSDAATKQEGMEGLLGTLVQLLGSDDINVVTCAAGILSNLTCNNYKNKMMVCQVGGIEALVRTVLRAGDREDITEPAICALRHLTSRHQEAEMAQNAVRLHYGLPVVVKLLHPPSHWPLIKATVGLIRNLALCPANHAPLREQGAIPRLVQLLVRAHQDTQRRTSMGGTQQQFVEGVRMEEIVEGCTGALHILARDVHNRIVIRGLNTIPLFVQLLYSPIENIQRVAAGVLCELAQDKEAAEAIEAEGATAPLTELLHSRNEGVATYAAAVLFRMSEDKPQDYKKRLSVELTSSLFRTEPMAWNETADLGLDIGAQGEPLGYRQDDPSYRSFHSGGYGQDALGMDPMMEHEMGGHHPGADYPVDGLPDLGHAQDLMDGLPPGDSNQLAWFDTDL
Protocol: HEK293 cells were transfected with a combination of 8 μg of ΔNβ-catenin (C) and 4 μg of RXRα. […] Cell lysates were subjected to immunoprecipitation using antibodies against the Flag tag in RXRα. Crosslinked molecules in immunoprecipitates were dissociated by reduction with β-mercaptoethanol before Western blotting analysis using HRP-conjugated antibodies against the v5 tag in ΔNβ-catenin (Top panel).
HEK293 cells were cultured to about 80% confluence in 150-mm Biocoat poly-D-Lysine plates (VWR Cat#354550), and then transfected with expression vectors for ΔN-β-catenin, and RXRα using Lipofectamine® Transfection Reagent (Invitrogen). Cells were then cultured in high glucose DMEM medium containing 10% activated charcoal-extracted fetal bovine serum.
The reaction was quenched by adding Tris buffer at pH7.5 to a final concentration of 20 mM. […]
To determine whether RXRs and β-catenin interact with each other, HEK293 cells were transfected with expression vectors for RXRα and/or ΔNβ-catenin. […] After completion of the cross-linking reaction, cell extracts were prepared and analyzed by immunoprecipitation using antibodies against the FLAG epitope in an RXRα-FLAG fusion protein, followed by Western blotting analysis using antibodies against the V5 Tag in ΔNβ-catenin. […]

RARα = biological target: T2, RARα (Homo sapiens, UniProt P10276); assay: Western blotting of RAR protein in transfected HEK293 cells; assay type: cell-based; settings: HEK293 co-expressing RXRα with RARα
T2 construct: expressed in transfected cells; host or cells: HEK293
T2 sequence (P10276 1-462): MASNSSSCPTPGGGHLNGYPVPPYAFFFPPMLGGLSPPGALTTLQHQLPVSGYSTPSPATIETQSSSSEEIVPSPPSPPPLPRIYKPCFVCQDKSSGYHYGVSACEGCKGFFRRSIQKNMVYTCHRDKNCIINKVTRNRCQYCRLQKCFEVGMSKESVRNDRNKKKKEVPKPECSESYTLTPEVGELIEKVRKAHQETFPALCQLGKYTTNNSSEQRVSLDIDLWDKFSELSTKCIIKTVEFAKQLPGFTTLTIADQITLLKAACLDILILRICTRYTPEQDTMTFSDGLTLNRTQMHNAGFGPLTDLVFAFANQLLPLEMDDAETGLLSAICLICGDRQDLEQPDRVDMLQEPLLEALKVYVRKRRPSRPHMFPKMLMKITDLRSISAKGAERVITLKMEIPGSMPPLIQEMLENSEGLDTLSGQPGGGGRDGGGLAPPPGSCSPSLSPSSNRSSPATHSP
Protocol: HEK293 cells transfected with expression vectors for β-catenin (4 μg) and RXRs (2 μg) or RARs (2 μg) and treated with ligands at concentrations indicated at the top of each gel. Protein levels were detected by Western blotting as shown in this figure. β-catenin and RARs were detected by HRP-conjugated antibodies against their V5 tag. RXRs were detected by HRP-conjugated antibodies against their Flag tag. […] In this experiment, the amount of expression vectors for RXRα and RARs used in transfection was 1 μg.
HEK293 cells were seeded at a density of 2×10 per dish were seeded into 100-mm dishes and cultured overnight in DMEM containing 10% FBS. Cells were transfected with 1-4 μg of various cDNA or parental expression vectors (8 μg of DNA in total) using Lipofectamine®. Five hours after transfection, cells were fed with fresh culture media DMEM containing 10% charcoal-treated FBS with vehicle DMSO or retinoids prepared in DMSO. […]
Total cell lysates were homogenized by passing through a QIAshredder® (Qiagen) and cleared from insoluble materials by centriftigation at 12,000 g. Protein concentration was determined using a Bradford total protein assay kit (Bio-Rad). […]

SMILES: CC(/C=C/[C@@H]1C[C@]1(C)c1ccc2c(c1)C(C)(C)CCC2(C)C)=C\C(=O)O [AGN 4204]
- Topflash reporter activity from endogenous β-catenin ([1]; HEK293, endogenous β-catenin, 0.1 μM, 17 hours): moderately reduced
- ΔNβ-catenin mutant activity in transactivating Topflash ([1]; HEK293, ΔNβ-catenin in the presence of RXRα): significantly impaired
- decrease in reporter activity ([1]; HEK293 cotransfected with β-catenin and RXRα, 0.1 μM, 17 hours): 90%
- decrease in reporter activity ([1]; stable line CAT overexpressing only β-catenin, 0.1 μM, 17 hours): 30%
- decrease in reporter activity ([1]; stable line RBC expressing β-catenin and RXRα, 0.1 μM, 17 hours): decrease in the reporter activity was also observed
- degradation of ΔNβ-catenin protein (β-catenin): susceptible to RXR-mediated degradation
- interaction between RXRα and ΔNβ-catenin (co-immunoprecipitation) [2]: ligand-independent
- degradation of RARα (RARα): RXR-ligand-dependent degradation
